Source: patent US12611423B2, “Medical use of tafoxiparin” (DILAFOR AB, priority 2022, dated 2026)

System: term pregnant, nulliparous women with an unripe cervix
Experiment: Clinical phase II trial PPL17 (Parts A and B), subcutaneous tafoxiparin vs placebo
Format: in vivo, human
Conditions: for Labor induced with PGE-1, % of women: placebo 10.2%; for Fetal distress as indication for operative delivery (ODFD), % of women: placebo 22.7%; for patients with operative delivery, % / women needing instrumental delivery (FIG. 4, vaginal mode of partus): placebo 45.5%; for Labor induced with amniotomy, % of women: placebo 56.8%; for Labor induction with Balloon catheter, % of women: placebo 58.0%; for Labor induced, % of women: placebo 70.5%; for women needing instrumental delivery or caesarian section to reach partus (FIG. 5): placebo 52%; for women reaching partus by vaginal delivery with no need for instrumental delivery nor caesarian section (FIG. 5): placebo 48%; for number of subjects (women) that reach spontaneous onset of labor / subjects (women) that reach spontaneous onset of labor, % of n: cumulative, n = 37
Description: A clinical phase II trial is performed as a randomized, double-blind, placebo-controlled, parallel-group proof of concept study (Part A) with a conditional dose finding follow up study (Part B) to evaluate the efficacy, safety, tolerability and dose response of subcutaneously administered tafoxiparin as a supplement to induction therapy in term pregnant, nulliparous women with an unripe cervix. The study is performed in Sweden and Finland (PPL17), and an EMA (European Medicines Agency) description of the study can be found on the EU Clinical Trials Register web (www.clinicaltrialsregister.eu/ctr-search/search?query=PPL17).
A total of 170 term pregnant women are randomized to receive either 300 mg of tafoxiparin, or corresponding placebo (vehicle), administered subcutaneously every 24±3 hours and up to a total of 7 doses, or until partus (Part A).
In the dose finding follow up study (Part B), a total of 164 term pregnant women are randomized to receive either 75 or 150 mg of tafoxiparin administered subcutaneously every 24±3 hours […] and up to a total of 7 doses, or until partus.
To assess the efficacy of tafoxiparin on cervical ripening/cervical ripening rate, during and up to the first seven days of treatment, measured by Bishop score. All women must be examined to check the cervical state before enrollment.
Tafoxiparin/Placebo is supplied by Dilafor AB to the site as kits designed to constitute 300 mg of tafoxiparin or placebo for daily administration. Apart from the active substance, each ml of study drug will constitute 0.015 M phosphate buffer. The study medication kit for each patient will contain 8 doses consisting of 2 vials containing a minimum extractable volume of 1.6 ml of 150 mg/ml of tafoxiparin or placebo. One dose is a reserve dose in case a dose is rendered unusable. The investigational product should be administered subcutaneously every 24±3 hours by the site staff for up to 7 doses, or until partus. At each dosing time 1.0 ml of the drug will be extracted from each of the 2 vials and injected as separate s.c. injections in the abdominal or hip region.
Tafoxiparin/Placebo is supplied by Dilafor AB to the site as kits designed to constitute 75 or 150 mg of tafoxiparin for daily administration. Apart from the active substance, each ml of study drug will constitute 0.015 M phosphate buffer. The study medication kit for each patient will contain 8 doses consisting of 2 vials for each injection occasion containing a minimum extractable volume of 1.6 ml of 150 mg/ml of tafoxiparin or placebo. For subjects receiving 75 mg of tafoxiparin, one vial will contain active substance and one containing placebo. For subjects receiving 150 mg of tafoxiparin, both vials will contain active substance. One dose is a reserve dose in case a dose is rendered unusable. The investigational product should be administered subcutaneously every 24±3 hours by the site staff for up to 7 doses, or until partus. At each dosing time, 0.5 ml of the drug will be extracted from each of the 2 vials and injected as separate s.c. injections in the abdominal or hip region.
If the subject is found to be eligible for the study, they will be randomized to study treatment, i.e. 300 mg of tafoxiparin or corresponding placebo daily (Part A), or 75 or 150 mg daily (Part B).
The study medication will be administered subcutaneously in the abdominal or hip region for up to a total of 7 doses or until labor induction or spontaneous onset of labor. If the cervix is still unripe after 7 doses of IMP, the patient is given cervical balloon catheter as a mean of labor induction.
Subjects who enter into spontaneous onset of labor after 1-7 doses of IMP should be managed according to clinical routines.
Subjects who are given 4-7 doses without entering into spontaneous onset of labor, but with a ripe cervix (Bishop Score ≥6), should be induced into labor by amniotomy and oxytocin treatment, but not before 4 treatment doses have been given. […]

tafoxiparin
Labor induced with oxytocin, number of women (150 mg, n = 85): 38
Labor induced, number of women (150 mg, n = 85): 48
Labor induction with Balloon catheter, number of women (150 mg, n = 85): 37
Number of patients with operative delivery (150 mg, n = 85): 41
Labor induced with PGE-1, % of women (150 mg, n = 85): 8.2%
Fetal distress as indication for operative delivery (ODFD), % of women (150 mg, n = 85): 23.5%
patients with operative delivery, % (150 mg, n = 85): 48.2%
Labor induced with oxytocin, % of women (150 mg, n = 85, placebo 54.5%): 44.7%
Labor induced with amniotomy, % of women (150 mg, n = 85): 45.9%
Labor induction with Balloon catheter, % of women (150 mg, n = 85): 43.5%
Labor induced, % of women (150 mg, n = 85): 56.5%
women needing instrumental delivery (FIG. 4, vaginal mode of partus) (150 mg, women with spontaneous onset of labor, 9 of the 32 women, p-value 0.422): 28.1%
women needing instrumental delivery or caesarian section to reach partus (FIG. 5) (150 mg, women with spontaneous onset of labor, 13 of 36 women): 36.1%
women reaching partus by vaginal delivery with no need for instrumental delivery nor caesarian section (FIG. 5) (150 mg, women with spontaneous onset of labor, 23 of 36 women): 63.9%
time point of spontaneous onset of labor (FIG. 3, change of Bishop score) (300 mg and 150 mg, women with spontaneous onset of labor): achieved spontaneous onset of labor at an earlier time point than women treated with 75 mg tafoxiparin and placebo
women achieving spontaneous onset of labor (FIG. 1) (300 mg s.c. once daily up to 7 doses, 37 women of 90, p-value=0.089 (part A 0.080), placebo 28.7%): 41.1%
development day-by-day towards a spontaneous onset of labor (300 mg, 150 mg, 75 mg, Table 3): shows a dose-response relationship
women reaching spontaneous onset of labor with uncomplicated delivery (300 mg, 27 of the 33 women, placebo 54.5%): 81.8%
number of subjects (women) that reach spontaneous onset of labor (300 mg, Study day 1): 2
subjects (women) that reach spontaneous onset of labor, % of n (300 mg, Study day 1): (5%)
number of subjects (women) that reach spontaneous onset of labor (300 mg, Study day 2): 11
subjects (women) that reach spontaneous onset of labor, % of n (300 mg, Study day 2): (30%)
number of subjects (women) that reach spontaneous onset of labor (300 mg, Study day 3): 18
subjects (women) that reach spontaneous onset of labor, % of n (300 mg, Study day 3): (49%)
number of subjects (women) that reach spontaneous onset of labor (300 mg, Study day 4): 23
subjects (women) that reach spontaneous onset of labor, % of n (300 mg, Study day 4): (62%)
number of subjects (women) that reach spontaneous onset of labor (300 mg, Study day 5): 30
subjects (women) that reach spontaneous onset of labor, % of n (300 mg, Study day 5): (81%)
number of subjects (women) that reach spontaneous onset of labor (300 mg, Study day 6): 34
subjects (women) that reach spontaneous onset of labor, % of n (300 mg, Study day 6): (92%)
number of subjects (women) that reach spontaneous onset of labor (300 mg, Study day 7): 37
subjects (women) that reach spontaneous onset of labor, % of n (300 mg, Study day 7): (100%)
Fetal distress as indication for operative delivery (ODFD), number of women (300 mg, n = 91): 11
Labor induced with PGE-1, number of women (300 mg, n = 91): 5
Labor induced with amniotomy, number of women (300 mg, n = 91): 50
Labor induced with oxytocin, number of women (300 mg, n = 91): 45
Labor induced, number of women (300 mg, n = 91): 53
Labor induction with Balloon catheter, number of women (300 mg, n = 91): 42
Number of patients with operative delivery (300 mg, n = 91): 32
Labor induced with PGE-1, % of women (300 mg, n = 91): 5.5%
Fetal distress as indication for operative delivery (ODFD), % of women (300 mg, n = 91): 12.1%
patients with operative delivery, % (300 mg, n = 91): 35.2%
Labor induced with oxytocin, % of women (300 mg, n = 91, placebo 54.5%): 49.5%
Labor induced with amniotomy, % of women (300 mg, n = 91): 54.9%
Labor induction with Balloon catheter, % of women (300 mg, n = 91): 46.2%
Labor induced, % of women (300 mg, n = 91): 58.2%
women needing instrumental delivery (FIG. 4, vaginal mode of partus) (300 mg, women with spontaneous onset of labor, 6 of the 33 women, p-value=0.048 (part A 0.053)): 18.2%
women needing instrumental delivery or caesarian section to reach partus (FIG. 5) (300 mg, women with spontaneous onset of labor, 10 of the 37 women): 27%
women reaching partus by vaginal delivery with no need for instrumental delivery nor caesarian section (FIG. 5) (300 mg, women with spontaneous onset of labor, 27 of the 37 women): 73%
effect on achieving spontaneous onset of labor (all three doses 300 mg, 150 mg and 75 mg): effective for achieving spontaneous onset of labor
effect on mode of partus (all three doses 300 mg, 150 mg and 75 mg, compared to placebo): effective for a person to reach partus by vaginal delivery and with less need for instrumental delivery or caesarian section
effect on need for instrumental delivery (all three doses (300 mg, 150 mg and 75 mg), women with spontaneous onset of labor, compared to placebo): effective in reducing the need for instrumental delivery
effect on need for intervention to achieve onset of labor (all three doses, compared to placebo): reduced the need for intervention in order to achieve onset of labor
time point of achieving a ripe cervix (any one of the three doses 75 mg, 150 mg and 300 mg, vs placebo): achieve a ripe cervix at an earlier time point than women that have been treated with placebo
need for operative delivery (caesarean section and instrumental delivery) due to fetal distress (conclusion of the clinical study): reduction of the need for operative delivery
effect on cervical ripening (FIG. 3) (doses 300 mg and 150 mg): beneficial effect on cervical ripening
estimated cervical ripening rate measured by Bishop score (FIG. 6) (first 7 days of treatment, all three doses (300 mg, 150 mg and 75 mg) compared to placebo): higher
labor time up to vaginal delivery (partus) (FIG. 2, Kaplan-Meier) (women with spontaneous onset of labor, 300 mg (p=0.070), 150 mg (p 0.654), 75 mg (p 0.114) vs placebo): shorter labor time up to vaginal delivery (partus) compared to placebo
